We go through three compounds from PMC10787790, “Isatin-tethered halogen-containing acylhydrazone derivatives as monoamine oxidase inhibitor with neuroprotective effect” (Scientific Reports, 2024).

As usually defined, the IC50 is the concentration that inhibits the measured activity by half. A word on the Ki: it is a measure of affinity in units of concentration, obtained from inhibition or displacement. Low values mean a stronger hold on the target, high ones a looser hold on the target.

The structures appear in SMILES notation. A value given as a limit tells only on which side of the number the result lay.

In data set [1] the test system is MAO-B. The settings on record: printed in Figure 2 (design strategy), no reference given; cited from earlier work.
For data set [2], the system named is MAO-A. The settings on record: halogenated pyrazoline, no reference given; cited from earlier work.
Data set [3] in a line: Parallel artificial membrane permeability assay (PAMPA), BBB. Format: in vitro ADME. The method, then: The blood–brain barrier (BBB) permeation abilities of the four lead molecules were analyzed using the PAMPA method[44],[45]. The detailed procedure is explained in the Supplementary Data.
Using a microtiter plate with 96 wells and a Millipore filter plate with 96 wells (ipvh, 125 μm thick filter, 0.45 μm pore), which was then saturated with 0.1 mL of n-dodecane, a "sandwich" structure was created in PAMPA. Stock solutions of drug samples in DMSO were created at a 10 mM concentration. The stock solution was diluted in buffer at pH 7.4 before being added to a 96-well filter plate in order to achieve a final sample concentration (0.01, 0.1, and 1 mM) and keep the DMSO concentration at 1% (v/v). The final dilutions were divided into 270 μL for the donor wells and 200 μL of pH 7.4 buffer for the acceptor well. The donor plate was placed on the top of the acceptor filter plate to form a sandwich (comprising of a synthetic lipid membrane in the center, an aqueous receiver on […], and an aqueous donor carrying an analyte on the bottom.). The test substance diffuses from the donor well across the lipid membrane and into the acceptor well. The sandwich is said to have been intact when the penetration occurred. The drug concentration in the reference, donor, and receiver wells was measured using UV spectroscopy. The rate of penetration is calculated using the following expression.
Log Pe = -ln [1-CA /Equilibrium]/A× (1/VD + 1/VA) × t
In general terms: In PAMPA a lipid-coated filter parts donor from acceptor wells.

For data set [4], the system named is TNF-α. Nature of the data set: TNF-α expression in LPS-induced SH-SY5Y cells. It counts as cell-based, human. As to conditions: LPS 1 µg/mL 2 h, compound 24 h, SH-SY5Y.
Data set [5] relates to IL-6. Nature of the data set: IL-6 expression in LPS-induced SH-SY5Y cells. Format: cell-based, human. The settings on record: LPS 1 µg/mL 2 h, compound 24 h, SH-SY5Y.
Data set [6] concerns ROS. Put plainly: ROS assay (DCF) in LPS-treated SH-SY5Y cells. Format: cell-based, human.
Experimental: (§1) Subcultures were performed every two days.
The OxiSelect Intracellular ROS Assay Kit (Cell Biolabs Inc., San Diego, CA, USA) was used to quantify the levels of the fluorescent probe 20,70-dichlorodihydrofluorescin diacetate (DCFH-DA).
Data set [7] concerns CAT. Nature of the data set: Catalase (CAT) activity in LPS-induced SH-SY5Y cells. It counts as cell-based, human. The settings on record: 10 µM/mL.
Experimental: as §1
CAT activity was determined according to Aebi[50]. A human CAT ELISA kit was purchased commercially (KrishGen Biosystems). Following treatment, the adherent cells were scraped off, suspended in cold PBS, sonicated, and placed on ice. The medium was then removed from each well. The 3 mL CAT assay combination comprised of extract (0.05 mL), phosphate buffer (1.5 mL, 100 mM buffer, pH 7.0), H2O2 (0.5 mL), and distilled water (0.95 mL). The absorbance decreased at 450 nm. CAT activity was reported in terms of ng/mL of H2O2 oxidized per min per gram[46]–[49].
The subject of data set [8] is GPx. Nature of the data set: Glutathione peroxidase (GPx) activity in LPS-induced SH-SY5Y cells. Format: cell-based, human. The settings on record: 10 µM/mL.
Text: A GPx assay kit (KrishGen Biosystems) was used to evaluate the GPx activity. The kit uses a colorimetric assay to determine the quantity of GPx. Glutathione reductase (GR) mediates GPx activity Oxidized glutathione (GSSG) is produced via hydroperoxide reduction by GPx. This glutathione is recycled back to its reduced state by GR and NADPH. The NADPH to NADP + oxidation was accompanied by a decrease in absorbance at 450 nm (A450). When GPx activity was rate-limiting, the rate of decline in A450 was directly correlated with GPx activity. Following treatment, adherent cells were removed from the wells, suspended in cold PBS, sonicated, and frozen. In accordance with the ELISA kit’s instructions, the lysed cell supernatant, or standard, was applied to all 96 wells of a plate together with a diluted radical detector to assay the activity of GPx. A microplate reader was used to measure the absorbance of the wells after 5 min[46]–[49]. Results were obtained in ng/mL.
For data set [9], the system named is SOD. Put plainly: Superoxide dismutase (SOD) activity in LPS-induced SH-SY5Y cells. It counts as cell-based, human. As to conditions: 10 µM/mL.
Experimental: Using a superoxide dismutase assay kit (KrishGen Biosystems, India), which measures the concentration of formazan crystals using a colorimetric assay, SOD activity was determined. In this test, a tetrazolium salt was used to detect the superoxide radicals produced by xanthine oxidase and hypoxanthine. After treatment, the medium was removed, centrifuged at 2000 rpm for 5 min at room temperature, and placed on ice. A diluted radical detector and lysed cell supernatant or a standard were applied to each well of a 96-well plate to evaluate SOD activity using an ELISA kit, according to the manufacturer’s instructions. The absorbance of the wells was then determined after 5 min at a wavelength of 450 nm using a microplate reader (Safire2, Tecan Group Ltd., Maennedorf, Switzerland).
Data set [10] has as its target T1, MAO-A (Homo sapiens, UniProt P21397).
T1 sequence (P21397 1-527): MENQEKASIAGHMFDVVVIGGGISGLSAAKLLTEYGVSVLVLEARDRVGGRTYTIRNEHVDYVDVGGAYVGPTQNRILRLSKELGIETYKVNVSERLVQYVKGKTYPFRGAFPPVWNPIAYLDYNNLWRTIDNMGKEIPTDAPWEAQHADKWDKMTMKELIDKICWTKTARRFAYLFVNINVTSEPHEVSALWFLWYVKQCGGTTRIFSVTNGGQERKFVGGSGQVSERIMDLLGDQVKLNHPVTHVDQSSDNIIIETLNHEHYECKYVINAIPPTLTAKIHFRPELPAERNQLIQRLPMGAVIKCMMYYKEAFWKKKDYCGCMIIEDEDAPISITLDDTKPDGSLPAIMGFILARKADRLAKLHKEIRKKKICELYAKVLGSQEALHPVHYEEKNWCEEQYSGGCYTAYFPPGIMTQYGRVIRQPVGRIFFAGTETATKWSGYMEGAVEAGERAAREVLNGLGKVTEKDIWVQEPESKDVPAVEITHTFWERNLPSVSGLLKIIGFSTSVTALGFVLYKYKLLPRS
Nature of the data set: Reversibility study by dialysis, MAO-A.
Experimental: Reversibility test was performed by using Dialyzer DiaEasy™ (6–8 kDa, BioVision, St. Grove, MA, USA).

Data set [11] relates to NF-kB. Nature of the data set: NF-kB expression in LPS-induced SH-SY5Y cells.
Data set [12] deals with T1, MAO-A. Put plainly: MAO-A inhibition assay (continuous, kynuramine).
Experimental: (§2) MAO-A and MAO-B activities were determined using 0.06 mM kynuramine and 0.3 mM benzylamine, respectively[39]. […] Concentrations of the substrates used were around 2.0 times of their Km values for the enzyme assay. The absorbance was measured using the continuous assay method described previously[40].
(§3) The selectivity index (SI) values of the compounds were calculated as follows: (IC50 of MAO-A)/(IC50 of MAO-B)[42].
For data set [13], the target named is T2, MAO-B (Homo sapiens, UniProt P27338).
T2 sequence (P27338 1-520): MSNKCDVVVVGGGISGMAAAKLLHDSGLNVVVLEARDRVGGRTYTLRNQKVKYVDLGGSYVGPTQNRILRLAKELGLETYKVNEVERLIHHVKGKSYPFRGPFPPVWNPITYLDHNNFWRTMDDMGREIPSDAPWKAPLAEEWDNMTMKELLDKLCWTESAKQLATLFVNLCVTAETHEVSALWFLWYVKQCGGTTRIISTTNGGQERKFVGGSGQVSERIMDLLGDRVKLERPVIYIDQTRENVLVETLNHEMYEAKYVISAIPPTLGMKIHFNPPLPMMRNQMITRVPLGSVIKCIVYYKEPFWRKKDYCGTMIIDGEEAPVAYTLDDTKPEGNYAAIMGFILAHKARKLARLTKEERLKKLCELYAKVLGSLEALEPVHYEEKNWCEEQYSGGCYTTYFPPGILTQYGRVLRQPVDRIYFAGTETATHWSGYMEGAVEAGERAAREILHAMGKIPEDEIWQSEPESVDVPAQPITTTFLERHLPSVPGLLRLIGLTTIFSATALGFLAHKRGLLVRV
Nature of the data set: MAO-B inhibition assay (continuous, benzylamine).
Experimental: as §2, §3

Data set [14] deals with T1, MAO-A. Nature of the data set: Enzyme kinetics, Lineweaver-Burk and secondary plots, MAO-A.
Experimental: Enzyme inhibition patterns and Ki values were determined by comparing Lineweaver–Burk (LB) plots and their secondary plots, respectively[40].

With `O=C1Nc2ccc(Cl)cc2/C1=N\NC(=O)c1ccc2c(c1)OCO2` [Compound 2A], the concentration for half-maximal inhibition (IC50) in data set [1] is 0.089 µM.
On to `CCOc1ccc(C2=NNC(c3ccc(Br)cc3)C2)cc1` (stereo not shown) [EH8], for which the concentration for half-maximal inhibition (IC50) in data set [2] is 4.31 µM.
Regarding `O=C1Nc2ccc(Cl)cc2/C1=N/NC(=O)c1ccc(Br)cc1` [IS15], in [3], the “CNS/BBB permeability in words” value is “high permeability and CNS bioavailability”. Moreover, the “Prediction (CNS permeation class)” value in [3] is recorded as “CNS+ (Pe (10^−6 cm/s) > 4.00: CNS + (high permeation))”. Besides, the “Experimental Pe” value in data set [3] (pH 7.4) was over 4 ×10⁻⁶ cm/s. In data set [3] (pH 7.4, read-out: Experimental Pe), the Papp was 4.39 ± 0.3 ×10⁻⁶ cm/s. Also, in data set [4], the “TNF-alpha level vs LPS-treated group” value is given as “significantly (p < 0.0001) reduced”. In [5], the “IL-6 level vs LPS-treated group” value was “significantly (p < 0.0001) reduced”. Besides, the “DCF intensity decrease at 10 µM” value in [6] (10 µM/mL (10 µM), vs LPS-induced cells) is recorded as “effective DCF intensity decrease”. In [6] (LPS-induced SH-SY5Y), the “DCF expression (ROS) vs cells treated with LPS alone” value is on record as “significantly inhibited (p < 0.0001)”. The “CAT (cellular anti-oxidant enzyme) effect” value in [7] is reported as “enhancing the enzyme activity”. For the same compound, the “GPx (cellular anti-oxidant enzyme) effect” value in [8] is “enhancing the enzyme activity”. Moreover, the “SOD (cellular anti-oxidant enzyme) effect” value in data set [9] is recorded as “enhancing the enzyme activity”. For the same compound, the “Reversibility of MAO-A inhibition” value in data set [10] is reported as “reversible-type inhibitors”. Also, the “NF-kB level vs LPS-treated group” value in [11] (LPS 1 µg/mL 2 h, compound 24 h, SH-SY5Y) is recorded as “significantly (p < 0.0001) reduced”. Moreover, the “NF-kB expression compared to IS6 and IS7” value in data set [11] (LPS-treated cell lines) is “significantly lower”. Moreover, the values for the half-maximal inhibitory concentration (IC50) in [12] and in data set [13] were 1.85 ± 0.085 µM and 0.337 ± 0.007 µM, respectively. Also, the remaining activity at 10 µM in data set [12] (read-out: Residual activity at 10 µM (%) MAO-A) was found to be 34.7 ± 0.71%; in data set [13] (read-out: Residual activity at 10 µM (%) MAO-B) it was 12.5 ± 3.64%. Further, in data set [12] (relative to IS7), the “Fold higher MAO-A inhibition than IS7” value amounted to 10.35 times. Further, the “Fold higher MAO-A inhibition than IS13” value in data set [12] (relative to IS13) is recorded as 11.94 times. In addition, the “SI (selectivity index)” value in [13] ((IC50 of MAO-A)/(IC50 of MAO-B), MAO-B compared to MAO-A) is on record as 5.50. In [14], this compound registered an inhibitory constant (Ki) of 1 ± 0.171 µM. In addition, the “Type of MAO-A inhibition” value in [14] (LB plot) is reported as “competitive”.
